Data set [1] deals with A2780 human ovarian cancer cells. The data set can be described thus: MTT assay, inhibition of cell growth, A2780. The format is cell-based. The procedure: (§1) Human A2780 and A2780cisR ovarian carcinoma cells were obtained from the European Centre of Cell Cultures (ECACC, Salisbury, UK) and maintained in culture as described by the provider. The cells were routinely grown in RPMI 1640 medium with GlutaMAX™ containing 5% foetal calf serum (FCS) and antibiotics (penicillin and streptomycin) at 37° C. and 5% CO2.
(§2) The antiproliferative activity of complexes 9-20 was evaluated against the human ovarian A2780 cancer cell line and its cisplatin-resistant derivative A2780cisR using the MTT assay, which measures mitochondrial dehydrogenase activity as an indication of cell viability. For the evaluation of growth inhibition tests, the cells were seeded in 96-well plates (25×10^3 cells per well) and grown for 24 h in complete medium. Complexes were dissolved in DMSO and added to the required concentration to the cell culture for 72 h incubation. Solutions of the compounds were applied by diluting a freshly prepared stock solution of the corresponding compound in aqueous RPMI medium with GlutaMAX™ (20 mM). Following drug exposure, 3-(4,5-dimethylthiazol-2-yl)-2,5-diphenyltetrazolium bromide (MTT) was added to the cells at a final concentration of 0.25 mg/mL and incubated for 2 h, then the culture medium was aspirated and the violet formazan (artificial chromogenic precipitate of the reduction of tetrazolium salts by dehydrogenases and reductases) dissolved in DMSO. The optical density of each well (96-well plates) was quantified three times in triplicates at 540 nm using a multiwall plate reader (iEMS Reader MF, Labsystems, US), and the percentage of surviving cells was calculated from the ratio of absorbance of treated to untreated cells. The IC50 values for the inhibition of cell growth were determined by fitting the plot of the logarithmic percentage of surviving cells against the logarithm of drug concentration using a linear regression function. The median value and the median absolute deviation were obtained from the Excel™ software (Microsoft™) and those values are reported in Table 2.
(§3) The toxicity of further compounds in accordance with the invention shown in FIGS. 9A and 9B and of the prior art compounds PA1 and PA2 was assessed as described in Example 6.
A general note: Tetrazolium dyes change colour on reduction, which living cells bring about.

A further data set can be described thus: Solubility (qualitative). The settings on record: water and organic solvents. The format is physicochemical. From the text: The spectroscopic data for the analogues [18]Cl, [19]Cl and [20]Cl is in excellent agreement with that reported previously Mashima et al., Schacht et al. Chérioux et al., cited above).
In data set [2] the test system is A2780cisR human ovarian cancer cells (cisplatin-resistant). Description: MTT assay, inhibition of cell growth, A2780cisR. The format is cell-based. The procedure:
as §1, §2, §3

A short description of data set [3]: Stability by 1H NMR spectroscopy. Particulars: 12 hours at 37° C. in DMSO-d6, in D2O/DMSO-d6 (95:5), and in DMSO-d6 with two drops of RPMI 1640 medium containing 5% foetal calf serum. The format is physicochemical.
Data set [4] in a line: Catalytic oxidation of glutathione to glutathione disulfide in aqueous solution.
The nature of data set [5]: Catalytic oxidation of cysteine to cystine in aqueous solution.
For data set [6], the system named is PLC/PRF/5 human liver cancer cells. The settings on record: MTT assay, from JP 7089855; cited from earlier work.
Setting [7] is: 72 h incubation, MTT, median value (Table 2), read-out: IC50 A2780.
[8] abbreviates: 72 h incubation, MTT, median value (Table 2), read-out: IC50 A2780cisR.
Where [9] appears, read: as described in Example 6 (Table 3), read-out: Average IC50 A2780.
Setting [10] is: as described in Example 6 (Table 3), read-out: Average IC50 A2780cisR.

Where “and” joins values, the source holds several entries; their conditions need not be identical. Equal values may be shown once. Read-outs that look alike come from different tables or passages of the source.

On to [(C6H6)2Ru2(SPh)3]^+ [[17]C1], for which the IC50 was 380 nM in data set [1] (setting [7]); 240 nM and 377 nM in data set [1] (as described in Example 6 (Table 3), listed as 17, read-out: Average IC50 A2780); 480 nM in data set [2] (setting [8]); 253 nM and 477 nM in data set [2] (as described in Example 6 (Table 3), listed as 17, read-out: Average IC50 A2780cisR). In addition, in “Solubility (qualitative)”, the Solubility entry was “soluble in water and in organic solvents”.

For `Cc1ccc(C(C)C)cc1.Cc1ccc(C(C)C)cc1.[Cl-].[Ru+2].[Ru+2].[S-]c1ccccc1.[S-]c1ccccc1.[S-]c1ccccc1` [[18]C1, [(p-^iPrC6H4Me)2Ru2(SPh)3]^+], the IC50 in data set [1] (setting [7]) turned out to be 240 nM; in data set [2] (setting [8]), 250 nM.

Consider “[(p-^iPrC6H4Me)2Ru2(S-p-C6H4Me)3]^+ [[20]C1]”, for which the “Stability (1H NMR signals)” value in data set [3] is on record as “stable under these conditions”. The “Catalysis of the reaction of Glutathione (GSH) to form glutathione disulfide (GSSG)” value in data set [4] is “very high efficiency”. In addition, the IC50 was 130 nM in data set [1] (setting [7]), 130 nM in data set [1] (setting [9]), 80 nM in data set [2] (setting [8]) and 77 nM in data set [2] (setting [10]). For the same compound, the “Catalysis of the reaction of Cysteine (Cys) to form Cystine” value in data set [5] is “very high efficiency”.

In the case of “[(C6H6—(CH2)2—O—C(O)—C6H4-p-O—(CH2)6CH3)2Ru2(SPh)3]^+ [[9]Cl]”, the half-inhibitory concentration (IC50) was 2200 nM in data set [1] (setting [7]) and 2700 nM in data set [2] (setting [8]).

Turning to `CCCCCCCOc1ccc(C(=O)OCCCCc2ccccc2)cc1.CCCCCCCOc1ccc(C(=O)OCCCCc2ccccc2)cc1.[Cl-].[Ru+2].[Ru+2].[S-]c1ccccc1.[S-]c1ccccc1.[S-]c1ccccc1` [[10]Cl, [(C6H6—(CH2)4—O—C(O)—C6H4-p-O—(CH2)6CH3)2Ru2(SPh)3]^+], the IC50 was determined as 4900 nM in data set [1] (setting [7]) and 5600 nM in data set [2] (setting [8]).

As for `COc1ccc(C=CC(=O)OCCCCc2ccccc2)cc1.COc1ccc(C=CC(=O)OCCCCc2ccccc2)cc1.[Cl-].[Ru+2].[Ru+2].[S-]c1ccccc1.[S-]c1ccccc1.[S-]c1ccccc1` [[12]Cl, [trans-(C6H6—(CH2)4—O—C(O)—CH═CH—C6H4-p-O—CH3)2Ru2(SPh)3]^+], the IC50 in data set [1] (setting [7]) is 490 nM; in data set [1] (setting [9]), 420 nM; in data set [2] (setting [8]), 560 nM; in data set [2] (setting [10]) it was 545 nM.

Take `CC1=C(C)C(C)C(C)=C1C.CC1=C(C)C(C)C(C)=C1C.Cc1ccc(S)cc1.Cc1ccc(S)cc1.Cc1ccc(S)cc1.[Ru+3].[Ru+3]` [PA2, [(CsMe5)2Ru2(p-SC6H4Me)3]^+, reference compound]: the IC50 in data set [1] (setting [9]) was 1930 nM; in data set [2] (setting [10]), 1550 nM.

With `CC1=C(C)C(C)C(C)=C1C.CC1=C(C)C(C)C(C)=C1C.Sc1ccccc1.Sc1ccccc1.Sc1ccccc1.[Ru+3].[Ru+3]` [PA1, [(CsMes)2Ru2(p-SC6H5)3]^+, reference compound], the IC50 in data set [1] (setting [9]) turned out to be 3050 nM; in data set [2] (setting [10]), 2190 nM.

Take `Cc1c(C)c(C)[c-](C)c1C.Cc1c(C)c(C)[c-](C)c1C.[Ru+3].[Ru+3].[S-]c1ccccc1.[S-]c1ccccc1.[S-]c1ccccc1` [PA1, [(CsMes)2Ru2(p-SC6H5)3]^+, reference compound]: the IC50 in data set [6] is on record as 0.131 mg/mL.

Take `COc1ccc(C=CC(=O)OCCc2ccccc2)cc1.COc1ccc(C=CC(=O)OCCc2ccccc2)cc1.[Cl-].[Ru+2].[Ru+2].[S-]c1ccccc1.[S-]c1ccccc1.[S-]c1ccccc1` [[11]Cl, [trans-(C6H6—(CH2)2—O—C(O)—CH═CH—C6H4-p-O—CH3)2Ru2(SPh)3]^+]: the IC50 worked out at 820 nM in data set [1] (setting [7]), 815 nM in data set [1] (setting [9]), 1360 nM in data set [2] (setting [8]) and 1360 nM in data set [2] (setting [10]).

Consider “[Ru2(p-MeC6H4Pr^i)2(p-SC6H4OH)3]^+ [Compound 21]”, for which the results for the IC50 in data set [1] (setting [9]) and in data set [2] (setting [10]) were 533 nM and 1470 nM, respectively.

In the case of `Cc1c(C)c(C)c(C)c(C)c1C.Cc1c(C)c(C)c(C)c(C)c1C.[Cl-].[Ru+2].[Ru+2].[S-]c1ccccc1.[S-]c1ccccc1.[S-]c1ccccc1` [[19]Cl, [(C6Me6)2Ru2(SPh)3]^+], the IC50 came to 400 nM in data set [1] (setting [7]), 433 nM in data set [1] (setting [9]), 1200 nM in data set [2] (setting [8]) and 1200 nM in data set [2] (setting [10]).

Turning to “[Ru2(p-C6Me6)2(p-SC6H4OH)3]^+ [Compound 22]”, the 50% inhibitory concentration (IC50) in data set [1] (setting [9]) and in data set [2] (setting [10]) was 500 nM each time.

By IC50 is commonly meant the point on the concentration scale where inhibition reaches its midpoint.

Source of the values: patent publication US20130172408A1, “Medicaments Based on Dinuclear Arene Ruthenium Complexes Comprising Bridging Thiolato, Selenolato or Alkoxo Ligands” (Universite de Neuchatel, priority 2010, published 2013).
